In EP4603105A1, “PHARMACEUTICAL COMPOSITION CONTAINING CYCLIC COMPOUND HAVING SELECTIVE KRAS INHIBITORY EFFECT AGAINST HRAS AND NRAS” (CHUGAI SEIYAKU KABUSHIKI KAISHA, priority 2022, dated 2024):
Read-outs that look alike come from different tables or passages of the source.

What was measured:
HRAS wild-type protein = HRAS wild-type protein (Homo sapiens, UniProt P01112); assay: Binding to HRAS by surface plasmon resonance (SPR), KD and KD ratio to KRAS
Method in brief: (§1)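 Each cycle, GDP-bound biotin-Avi RAS was captured (~100–300 RU), compound concentrations were injected low to high for 75 s each at 100 µL/min, then the chip was regenerated. Buffer: HBS pH 7.4, 10 mM MgCl2, 10 µM GDP, 1 mM DTT, 4% DMSO; 30°C. KD from a 1:1 binding model.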

[1] = target: GDP-bound KRAS wild-type protein (Homo sapiens, UniProt P01116); assay: Binding to KRAS by surface plasmon resonance (SPR), dissociation constant KD
Chain of GDP-bound KRAS wild-type protein (P01116 1-188 isoform P01116-2): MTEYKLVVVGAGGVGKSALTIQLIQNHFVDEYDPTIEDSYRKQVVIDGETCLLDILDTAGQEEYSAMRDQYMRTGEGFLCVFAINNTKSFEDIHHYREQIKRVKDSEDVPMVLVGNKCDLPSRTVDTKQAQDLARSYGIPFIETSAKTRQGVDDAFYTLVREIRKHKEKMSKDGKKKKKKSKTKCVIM
Method in brief: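 Measured at 30°C: SPR with GDP-loaded, E. coli-expressed biotin-Avi RAS captured (~100–300 RU), ascending 75 s compound injections, HBS pH 7.4 with GDP, MgCl2, 4% DMSO. KD from 1:1 fit.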

[2] = test system: human lung cancer strain NCI-H441; assay: NCI-H441 cell proliferation inhibitory activity (CellTiter-Glo, 4 days); assay type: cell-based; conditions: read-out: NCl-H441 IC50
Method in brief: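 Signal came from […] measured per well once the reagent was added. Beforehand, cells were cultured at 37°C and 5% carbon dioxide on a compound series serially diluted in dimethyl sulfoxide.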

[3] = target: GDP-bound NRAS wild-type protein (Homo sapiens, UniProt P01111); assay: Binding to NRAS by surface plasmon resonance (SPR), KD and KD ratio to KRAS
Chain of GDP-bound NRAS wild-type protein (P01111 whole entry): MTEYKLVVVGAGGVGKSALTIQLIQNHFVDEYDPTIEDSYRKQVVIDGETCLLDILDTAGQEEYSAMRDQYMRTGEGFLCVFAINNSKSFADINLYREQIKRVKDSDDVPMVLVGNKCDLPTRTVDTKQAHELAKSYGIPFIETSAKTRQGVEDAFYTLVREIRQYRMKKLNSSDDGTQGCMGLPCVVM
Method in brief: as §1

[4] = ratio of KD with respect to HRAS wild-type protein to KD with respect to KRAS
[5] = Single Cycle Kinetics, 1:1 binding model
[6] = 50% proliferation inhibitory concentration, four days
[7] = ratio of KD with respect to GDP-bound NRAS wild-type protein to KD with respect to KRAS
[8] = ratio of KD for HRAS wild-type protein to KD for KRAS
[9] = ratio of KD for GDP-bound NRAS wild-type protein to KD for KRAS

Chain of HRAS wild-type protein (P01112 whole entry): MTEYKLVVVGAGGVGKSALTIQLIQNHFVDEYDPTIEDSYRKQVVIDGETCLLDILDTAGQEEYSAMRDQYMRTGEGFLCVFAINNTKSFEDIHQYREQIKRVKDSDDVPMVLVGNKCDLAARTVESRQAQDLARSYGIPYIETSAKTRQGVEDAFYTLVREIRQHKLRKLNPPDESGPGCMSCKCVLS

Structure (SMILES) | HRAS /KRAS (HRAS wild-type protein; [4]) | Kd [1, 5] [nM] | IC50 [2, 6] [nM] | NRAS /KRAS [3, 7] | HRAS /KRAS (HRAS wild-type protein; [8]) | Kd ([1]; 1:1 binding model) [nM] | IC50 ([2]; NCI-H441 cells, 4 days) [nM] | NRAS /KRAS [3, 9] | Kd ([1]; Single Cycle Kinetics) [nM]
CCO[C@@H]1C[C@H]2C(=O)NC3(CCC3)C(=O)N(C)[C@@H](C(CC)CC)C(=O)N(C)[C@H](C(=O)N(C)C)CC(=O)N(C)[C@@H](CC)C(=O)N[C@@H]([C@@H](C)CC)C(=O)N(C)CC(=O)N(C)[C@H]3C/C=C\CCN(C3=O)[C@@H](Cc3ccc(C(F)(F)F)cc3)C(=O)N(C)CC(=O)N[C@@H](CCc3cc(F)c(Cl)c(F)c3)C(=O)N2C1 [PP1230] | A (a compound having 10 or more and less than 20 is denoted as A) | 0.77 | 110 | A (a compound having 10 or more and less than 20 is denoted as A) | – | – | – | – | –
CCOC[C@H]1C(=O)N[C@@H]([C@@H](C)CC)C(=O)N(C)CC(=O)N(C)[C@H]2C/C=C\CCN(C2=O)[C@@H](CC2CCCCC2)C(=O)N(C)CC(=O)N[C@@H](CCc2cc(F)c(C(F)(F)F)c(F)c2)C(=O)N2C[C@H](OCC)C[C@H]2C(=O)NC2(CC(C)(C)C2)C(=O)N(C)[C@@H](C(CC)CC)C(=O)N(C)[C@H](C(=O)N(C)C)CC(=O)N1C [PP2479] | – | – | – | – | A (a compound having 10 or more and less than 20 is denoted as A) | 1.4 | 26 | AA (a compound having 20 or more is denoted as AA) | –
CC[C@H](C)[C@@H]1NC(=O)[C@H](CC)N(C)C(=O)C[C@@H](C(=O)N2CCOCC2)N(C)C(=O)[C@H](C2CCCC2)N(C)C(=O)C2(CCC2)NC(=O)[C@@H]2CCCN2C(=O)[C@H](CCc2cc(F)c(C(F)(F)F)c(F)c2)NC(=O)CN(C)C(=O)[C@H](Cc2ccc(C(F)(F)F)cc2)N2C[C@H](C)[C@H](C)C[C@@H](C2=O)N(C)C(=O)CN(C)C1=O [PP1366] | B (a compound having 3 or more and less than 10 is denoted as B) | 0.11 | 14 | A (a compound having 10 or more and less than 20 is denoted as A) | – | – | – | – | –
CCO[C@@H]1C[C@H]2C(=O)NC3(CCC3)C(=O)N(C)[C@@H](C(CC)CC)C(=O)N(C)[C@H](C(=O)N3CCCC3)CC(=O)N(C)[C@@H](C)C(=O)N[C@@H]([C@@H](C)CC)C(=O)N(C)CC(=O)N(C)[C@H]3C/C=C\CCN(C3=O)[C@@H](CC3CCC(F)(F)CC3)C(=O)N(C)CC(=O)N[C@@H](CCc3cc(F)c(C(F)(F)F)c(F)c3)C(=O)N2C1 [PP1436] | A (a compound having 10 or more and less than 20 is denoted as A) | 0.29 | 47.4 | AA (a compound having 20 or more is denoted as AA) | – | – | – | – | –
CCO[C@@H]1C[C@H]2C(=O)NC3(CCC3)C(=O)N(C)[C@@H](C3CCCC3)C(=O)N(C)[C@H](C(=O)N(C)C)CC(=O)N(C)[C@@H](CC(C)C)C(=O)N[C@@H]([C@@H](C)CC)C(=O)N(C)CC(=O)N(C)[C@H]3C/C=C\CCN(C3=O)[C@@H](Cc3ccc(F)cc3)C(=O)N(C)CC(=O)N[C@@H](CCc3ccc(Cl)c(Cl)c3)C(=O)N2C1 [PP1482] | B (a compound having 3 or more and less than 10 is denoted as B) | 0.45 | 76.4 | A (a compound having 10 or more and less than 20 is denoted as A) | – | – | – | – | –
CCO[C@@H]1C[C@H]2C(=O)OC3(CCC3)C(=O)N(C)[C@@H](C3CCCC3)C(=O)N(C)[C@H](C(=O)N(C)C)CC(=O)N(C)[C@@H]([C@@H](C)OC)C(=O)N[C@@H]([C@@H](C)CC)C(=O)N3CCC[C@H]3C(=O)N(C)[C@H]3C/C=C\CCN(C3=O)[C@@H](Cc3ccc(C)cc3)C(=O)N(C)CC(=O)N[C@@H](CCc3ccc(C(F)(F)F)c(OC)c3)C(=O)N2C1 [PP3392] | – | – | – | – | B (a compound having 3 or more and less than 10 is denoted as B) | – | 11.5 | A (a compound having 10 or more and less than 20 is denoted as A) | 0.64
CCO[C@@H]1C[C@H]2C(=O)NC3(CCC3)C(=O)N(C)[C@@H](C3CCCC3)C(=O)N(C)[C@H](C(=O)N3CCOCC3)CC(=O)N(C)[C@@H](CC)C(=O)N[C@@H]([C@@H](C)CC)C(=O)N3CC[C@H]3C(=O)N(C)[C@H]3C[C@@H](C)[C@@H](C)CN(C3=O)[C@@H](Cc3ccc(C(F)(F)F)cc3)C(=O)N(C)CC(=O)N[C@@H](CCc3ccc(C(F)(F)F)c(Cl)c3)C(=O)N2C1 [PP1357] | B (a compound having 3 or more and less than 10 is denoted as B) | 0.13 | 5.4 | A (a compound having 10 or more and less than 20 is denoted as A) | – | – | – | – | –
CCC[C@H]1C(=O)N[C@@H]([C@@H](C)CC)C(=O)N2CCC[C@H]2C(=O)N(C)[C@H]2C/C=C\CCN(C2=O)[C@@H](Cc2ccc(C)cc2)C(=O)N(C)CC(=O)N[C@@H](CCc2ccc(Cl)c(Cl)c2)C(=O)N2C[C@H](OCC)C[C@H]2C(=O)NC2(CC(C)(C)C2)C(=O)N(C)[C@@H](C(CC)CC)C(=O)N(C)[C@H](C(=O)N(C)C)CC(=O)N1C [PP2638] | – | – | – | – | A (a compound having 10 or more and less than 20 is denoted as A) | 2.5 | 97 | AA (a compound having 20 or more is denoted as AA) | –
CCO[C@@H]1C[C@H]2C(=O)NC3(CCC3)C(=O)N(C)[C@@H](C3CCCC3)C(=O)N(C)[C@H](C(=O)N3CCOCC3)CC(=O)N(C)[C@@H](CC)C(=O)N[C@@H]([C@@H](C)CC)C(=O)N3CC[C@H]3C(=O)N(C)[C@H]3CC[C@@H](C)CN(C3=O)[C@@H](Cc3ccc(C(F)(F)F)cc3)C(=O)N(C)CC(=O)N[C@@H](CCc3ccc(C(F)(F)F)c(Cl)c3)C(=O)N2C1 [PP1375] | B (a compound having 3 or more and less than 10 is denoted as B) | 0.23 | 11.5 | B (a compound having 3 or more and less than 10 is denoted as B) | – | – | – | – | –
CCO[C@@H]1C[C@H]2C(=O)NC3(CCC3)C(=O)N(C)[C@@H](C3CCCC3)C(=O)N(C)[C@H](C(=O)N3CCCC3)CC(=O)N(C)[C@@H](CC(C)C)C(=O)N[C@@H]([C@@H](C)CC)C(=O)N(C)CC(=O)N(C)[C@H]3C/C=C\CCN(C3=O)[C@@H](Cc3ccc(C(F)(F)F)cc3)C(=O)N(C)CC(=O)N[C@@H](CCc3cc(F)c(C(F)(F)F)c(F)c3)C(=O)N2C1 [PP1295] | A (a compound having 10 or more and less than 20 is denoted as A) | 0.12 | 6.2 | AA (a compound having 20 or more is denoted as AA) | – | – | – | – | –
CCC[C@H]1C(=O)N[C@@H]([C@@H](C)CC)C(=O)N2CCC[C@H]2C(=O)N(C)[C@H]2C/C(F)=C\CCN(C2=O)[C@@H](Cc2ccc(C)cc2)C(=O)N(C)CC(=O)N[C@@H](CCc2ccc(C(F)(F)F)c(OC)c2)C(=O)N2C[C@H](OCC)C[C@H]2C(=O)N(C)C2(CCC2)C(=O)N(C)[C@@H](C2CCCC2)C(=O)N(C)[C@H](C(=O)N(C)C)CC(=O)N1C [PP3524] | – | – | – | – | B (a compound having 3 or more and less than 10 is denoted as B) | – | 6.9 | B (a compound having 3 or more and less than 10 is denoted as B) | 0.24
CCCO[C@@H]1C[C@H]2C(=O)NC3(CC(C)(C)C3)C(=O)N(C)[C@@H](C3CCCC3)C(=O)N(C)[C@H](C(=O)N(C)CC)CC(=O)N(C)[C@@H](COCC)C(=O)N[C@@H]([C@@H](C)CC)C(=O)N(C3CC3)CC(=O)N(C)[C@H]3C/C=C\CCN(C3=O)[C@@H](Cc3ccc(C(F)(F)F)cc3)C(=O)N(C)CC(=O)N[C@@H](CCc3ccc(C(F)(F)F)c(Cl)c3)C(=O)N2C1 [PP3403] | – | – | – | – | A (a compound having 10 or more and less than 20 is denoted as A) | – | 15.2 | A (a compound having 10 or more and less than 20 is denoted as A) | 0.81
